# Laboratory results from patent US20120034193A1, “TREATMENT OF NEUROTROPHIC FACTOR MEDIATED DISORDERS” (priority 2009, published 2012).
# Marks after values point to notes of the source that are not given here.
# How the values were obtained:
# pmn mice = experiment: Progressive motor neuropathy (pmn) mouse model; format: in vivo
# Method: Affected homozygous +/+ pmn (“pmn mice”) mice were obtained from a breeding colony of extra toe locus(Xt)+/+pmn double heterozygous mice maintained at Neurofit (Illkirch, France). The pmn mice were dosed by oral gavage every day, starting 10 days after birth, just after the initial symptoms of the disease manifest. Sarsasapogenin (0.03, 0.3 and 3 μg/kg/day) was administered to pmn mice as a suspension in oil (10 ml/kg). Electromyographic (EMG) recordings were performed using a standard Neuromatic 2000M electromyograph apparatus in accordance with the guidelines of the American Association of Electrodiagnostic Medicine. Standard behavioural tests (grid, rotarod and hanging tests) performed weekly from day 8 assessed the motor performances of the pmn mice.
# The effect of sarsasapogenin on motor function was assessed by recording the amplitude of gastrocnemius evoked motor response (CMAP, an indirect measurement of the number of functional motor neurones).
# [1] = tested on: Adrenergic α1, non selective; experiment: Receptor binding assay; parameters: species or system Rat; details: sarsasapogenin 10 μM
# Method: (§1) The receptor binding was investigated using the following method: Sarsasapogenin was incubated with tissue or cell homogenate that expressed the receptor of interest and a known concentration a radiolabelled compound with affinity for the receptor of interest. After the incubation period the non-bound radiolabelled compound was removed and the amount of specific binding was quantified. The amount of specific binding in the presence and absence of sarsasapogenin were compared and the percent inhibition of the binding of the radiolabelled compound by sarsasapogenin was calculated. The source of the receptor, the incubation conditions, the radiolabelled compound used varied depending on each specific assay.
# [2] = tested on: Adrenergic β, non selective; experiment: Receptor binding assay; parameters: species or system Rat; details: sarsasapogenin 10 μM
# Method: as §1
# Serotonin 5-HT1 = experiment: Receptor binding assay; parameters: species or system Rat; details: sarsasapogenin 10 μM
# Method: as §1
# Glutamate = experiment: Receptor binding assay; parameters: species or system Rat; details: sarsasapogenin 10 μM
# Method: as §1
# [3] = tested on: Adrenergic α2, non selective; experiment: Receptor binding assay; parameters: species or system Rat; details: sarsasapogenin 10 μM
# Method: as §1
# GABAA = experiment: Receptor binding assay; parameters: species or system Rat; details: sarsasapogenin 10 μM
# Method: as §1
# Glutamate, NMDA, Agonism = experiment: Binding assay; parameters: species or system Rat; details: smilagenin 1 μM
# Method: as §1
# (§2) Using the same methods as described above, the binding of smilagenin (1 μM) to the receptors listed in Table 2 below, and the effect of smilagenin on the activity of the enzymes listed in Table 2 below, were investigated.
# [4] = tested on: Calcium Channel L-Type, Dihydropyridine; experiment: Binding assay; parameters: species or system Rat; details: smilagenin 1 μM
# Method: as §1, §2
# GABAA Muscimol, Central = experiment: Binding assay; parameters: species or system Rat; details: smilagenin 1 μM
# Method: as §1, §2
# [5] = tested on: Glutamate, NMDA, Polyamine; experiment: Binding assay; parameters: species or system Rat; details: smilagenin 1 μM
# Method: as §1, §2
# Potassium Channel [SKCA] = experiment: Binding assay; parameters: species or system Rat; details: smilagenin 1 μM
# Method: as §1, §2
# [6] = tested on: Glutamate, NMDA, Phencyclidine; experiment: Binding assay; parameters: species or system Rat; details: smilagenin 1 μM
# Method: as §1, §2
# [7] = tested on: Protein Serine/Threonine Kinase, PKC, Non-Selective; experiment: Functional assay; format: biochemical, Rat; details: smilagenin 1 μM
# Method: (§3) The enzyme activity modulation was investigated using the following method: Sarsasapogenin was incubated with each enzyme plus a specific substrate for each enzyme. After the incubation period the reaction was stopped and the reduction of the specific substrate or the increase in a specific product in the absence and presence of sarsasapogenin was measured and the percent inhibition of the reaction in the presence of sarsasapogenin was calculated. The amount of enzyme used, the incubation conditions, the substrate used and the method of quantification varied depending on each specific assay.
# as §2
# Functional assay = format: biochemical; details: smilagenin 1 μM
# Method: as §3, §2
# GDNF = experiment: Unbound GDNF in the putamen of MPTP-lesioned macaques; format: in vivo, Macaca fascicularis; details: smilagenin 20 mg/kg/day p.o., 18 weeks; control 9.52, MPTP 15.33
# Method: (§4) Nineteen female cynomolgus monkeys (Macaca fascicularis, 3.0-4.5 kg, 4-6 years old) were acclimatised to the experimental setting and procedures for 3 months and baseline behaviour was assessed in all animals. Fourteen female macaques received MPTP (0.2 mg/kg/day, s.c.) until marked, stable, parkinsonian symptoms developed. Animals (n=7/group) were randomly assigned to two groups; smilagenin (20 mg/kg/day, p.o.) or vehicle control (HPMC, 0.5% w/v containing Tween 80, 0.2% v/v).
# (§5) Assessments of parkinsonian disability were made after MPTP administration and following 18 weeks of smilagenin or vehicle administration. Parkinsonian disability was evaluated by post hoc analysis of DVD-recordings by a neurologist blinded to the treatment. At the end of the study the brains were removed and the levels of unbound GDNF and BDNF in the putamen were measured using Multiplex ELISA/Aushon assays. The MPTP treated macaques used in this experiment thus provide an accepted model for Parkinson's disease and similar motor-sensory neurodegenerative conditions.
# [8] = tested on: Rat dopaminergic neurones; experiment: TH positive neurones and neurite outgrowth after MPP+ exposure; format: cell-based; details: 10 μM from day 6, MPP+ 2 μM day 8 for 48 h
# Method: Rat dopaminergic neurones were prepared using a slightly modified previously described method (Brouard et al., Journal of Neuroscience, 1992, 12, pp. 1409-1415). On day 6 the culture medium was replaced with fresh medium or fresh medium containing smilagenin (10 μM) or vehicle (DMSO, 0.25%). On day 8, MPP^+ (2 μM) or vehicle (saline) was added and 48 h later dopaminergic neurones were stained and the concentration of GDNF in the culture medium, neuronal damage and neurite outgrowth were assessed.
# [9] = tested on: Free Radical Scavenger, SOD Mimetic; experiment: Functional assay; format: biochemical, Bovine; details: smilagenin 1 μM
# Method: as §3, §2
# Chemokine CXCR1 = experiment: Binding assay; parameters: species or system Human; details: smilagenin 1 μM
# Method: as §1, §2
# Nicotinic Acetylcholine = experiment: Binding assay; parameters: species or system Human; details: smilagenin 1 μM
# Method: as §1, §2
# [10] = tested on: Tumour Necrosis Factor (TNF), non-selective; experiment: Binding assay; parameters: species or system Human; details: smilagenin 1 μM
# Method: as §1, §2
# [11] = tested on: Vascular Endothelial Growth Factor (VEGF); experiment: Binding assay; parameters: species or system Human; details: smilagenin 1 μM
# Method: as §1, §2
# MPTP-lesioned macaques = experiment: Parkinsonian disability in MPTP-lesioned macaques; format: in vivo, Macaca fascicularis
# Method: as §4, §5
structure (smiles),measurement,setting,value
"C[C@H]1CC[C@@]2(OC1)O[C@H]1C[C@H]3[C@@H]4CC[C@@H]5C[C@@H](O)CC[C@]5(C)[C@H]4CC[C@]3(C)[C@H]1[C@@H]2C [Sarsasapogenin, sarsasapogenin]",Progression of the motor neurone degeneration,"pmn mice; 0.03 μg/kg/day oral, lowest tested dosage",does not delay the progression of the motor neurone degeneration
same,Amplitude of CMAP (motor function),"pmn mice; 0.3 μg/kg/day oral from day 10 after birth, p<0.001",delayed the deterioration of motor function
same,Increase of survival (lifespan) of pmn mice compared to control,"pmn mice; 0.3 μg/kg/day oral, after symptoms manifest, p=0.006",up to 62%
same,Rotarod and grid test performances,"pmn mice; 0.3 μg/kg/day oral, p=0.02 vs pmn control",significantly delayed the deterioration in the rotarod and grid test performances
same,Effect (%),[1],NS (NS = No significant response. Significance was taken as ≧30% stimulation or inhibition)
same,Effect (%),[2],NS (NS = No significant response. Significance was taken as ≧30% stimulation or inhibition)
same,Effect (%),Serotonin 5-HT1,NS (NS = No significant response. Significance was taken as ≧30% stimulation or inhibition)
same,Effect (%),Glutamate,NS (NS = No significant response. Significance was taken as ≧30% stimulation or inhibition)
same,Effect (%),[3],NS (NS = No significant response. Significance was taken as ≧30% stimulation or inhibition)
same,Effect (%),GABAA,NS (NS = No significant response. Significance was taken as ≧30% stimulation or inhibition)
"C[C@@H]1CC[C@@]2(OC1)O[C@H]1C[C@H]3[C@@H]4CC[C@@H]5C[C@@H](O)CC[C@]5(C)[C@H]4CC[C@]3(C)[C@H]1[C@@H]2C [Smilagenin, smilagenin]",Effect (%),"Glutamate, NMDA, Agonism",NS (NS = No significant response. Significance was taken as ≧30% stimulation or inhibition)
same,Effect (%),[4],NS (NS = No significant response. Significance was taken as ≧30% stimulation or inhibition)
same,Effect (%),"GABAA Muscimol, Central",NS (NS = No significant response. Significance was taken as ≧30% stimulation or inhibition)
same,Effect (%),[5],NS (NS = No significant response. Significance was taken as ≧30% stimulation or inhibition)
same,Effect (%),Potassium Channel [SKCA],NS (NS = No significant response. Significance was taken as ≧30% stimulation or inhibition)
same,Effect (%),[6],NS (NS = No significant response. Significance was taken as ≧30% stimulation or inhibition)
same,Effect (%),[7],NS (NS = No significant response. Significance was taken as ≧30% stimulation or inhibition)
same,Effect (%),Functional assay,NS (NS = No significant response. Significance was taken as ≧30% stimulation or inhibition)
same,Mean ± s.e.mean of unbound GDNF level in the putamen (pg/mg protein),GDNF,5.09 ± 1.35 pg/mg protein
same,Neurite outgrowth (% of control),[8],62.1 ± 7.0 % of control
same,Number of TH positive neurones per field (% of control),[8],57.1 ± 5.2 % of control
same,Effect (%),[9],NS (NS = No significant response. Significance was taken as ≧30% stimulation or inhibition)
same,Effect (%),Chemokine CXCR1,NS (NS = No significant response. Significance was taken as ≧30% stimulation or inhibition)
same,Effect (%),Nicotinic Acetylcholine,NS (NS = No significant response. Significance was taken as ≧30% stimulation or inhibition)
same,Effect (%),[10],NS (NS = No significant response. Significance was taken as ≧30% stimulation or inhibition)
same,Effect (%),[11],NS (NS = No significant response. Significance was taken as ≧30% stimulation or inhibition)
same,Median parkinsonian disability post-MPTP administration,"MPTP-lesioned macaques; baseline of the smilagenin group, before dosing",47.17
same,Median parkinsonian disability at week 18,"MPTP-lesioned macaques; smilagenin 20 mg/kg/day p.o., 18 weeks, MPTP vehicle group 41.67",27.00^###
